Assay results reported in paper PMC11148078, “Potent activity of polymyxin B is associated with long-lived super-stoichiometric accumulation mediated by weak-affinity binding to lipid A” (Nature Communications, 2024).
Entries after “also recorded” stand apart in the source; their conditions may differ. Bridge positions count the residues as written; N and C are the ends. Square brackets hold non-standard residues; d marks the D form. Peptide text beside a SMILES is read from it. * marks the point of attachment. X1 = CC[C@H](C)CCCCC(=O)*; Dab = NCC[C@H](N)C(=O)O

What was measured:
[1] = tested on: LPS (rough-LPS extracted from E. coli F583, Rd mutant); assay: Mechanistic SPR study, purified LPS; type: binding; conditions: for Rmax normalized by molecular weight ratio PMB:PMBN: LPS surface
Experimental: OMV-coated and whole cell-coated C1 chips were prepared as already described with the following changes and LPS-coated surfaces were prepared identically but with rough-LPS extracted from E. coli F583 (Rd mutant, Sigma #L6893). For LPS, cloudy colloid suspension (above its CMC, ~1 mg/ml) contains LPS micelles that were injected and captured. For all formats, sample buffer and running buffer were composed of Dulbecco’s phosphate-buffered salt solution containing 0.0005% tween-80 (Sigma), 1 mM calcium and 0.5 mM magnesium (Fisher Scientific), pH 7.4. Analysis and compartment temperatures were both set to 37 °C. Freshly prepared OMV-coated or whole cell-coated sensing surfaces were employed for each injection of polymyxin B while LPS-coated sensing surfaces could be fully regenerated by injecting 50 mM CHAPS. Reversibly bound PMBN could be reinjected over all surfaces without requiring regeneration as it fully dissociated within a few minutes.
Serial doubling dilutions of PMBN were injected from […] over whole cells and OMVs at […] for 1 min (Fig. 3A, B). This was repeated over LPS-coated sensing surfaces and, in this case, serial doubling dilutions of PMBN were injected from 5 mM to 0.625 mM for 30 s at […], immediately prior to injection of […] polymyxin B for 200 s at […] (Fig. 3D).
Fresh sensing surfaces coated with whole cells and OMVs were prepared and 325 nM polymyxin B was injected at […] for 120 s over both. This injection was repeated after a long delay, and without regeneration, in order to allow free sites to become available thereby resulting in two polymyxin B binding curves for each sensing surface (Fig. 3E, F). A fresh LPS-coated surface was prepared and polymyxin B was injected using SCK injection mode over a serial doubling dilution range from 625 nM to 39 nM.
Section 1 - Mechanistic studies of polymyxins
The interaction models introduced here (Eqn (S1-S3)) are annotated in terms of binding of polymyxin B (PMB) to LPS but also apply to any other affinity binding pair. Molar concentrations of bound PMB are converted to SPR response as R = G.MW.[PMB], where MW is the molecular weight of PMB, and G is a mass-to-response conversion factor. A full quantitative interpretation of SPR sensitivity has been reported1. In a general case, a protein concentration of 0.01 (g/L) produces a response of 1 response unit (RU) yielding the proportionality constant G=100 (L/g).
Here, we assume protein is distributed uniformly within a […] thick hydrogel, dissolved in buffer at near physiological salt concentrations in the absence of high concentrations of high refractive index substances, such as glycerol and DMSO. This calibration may be adjusted for variability in the refractive index increment when working with buffers or other classes of molecules such as nucleic acids, polysaccharides, or drug-like molecules. In addition, binding interactions confined to planar sensing surfaces (i.e., no hydrogel matrix) results in a 1.3-fold increased response due to minimal decay in SPR sensitivity when close to the sensing surface (e.g., < 10 nm). Change in protein accumulation over time produces responses that are indicated here by a time subscript (e.g., R(t)). A simple 1:1 model for binding of PMB to LPS to form an affinity complex PMBL is given by the pseudo-first-order model defined by Eqn (S1). dR/dt = (kon.[PMB]i.(Rmax-R(t)) -koff.R(t)) Eqn (S1)
Where R is the SPR response for accumulation of affinity complex PMBL. [PMB]i is the injected concentration of PMB and Rmax is the saturation response assuming full target occupancy. This model assumes that mass transport of PMB within the flow cell, which governs the rate of exchange of PMB between the bulk liquid and the sensing surface, is non-limiting. However, this […]
in the 1:1 two-compartment model in Eqn (S2). dR/dt = (kon.[PMB].(Rmax-R(t)) -koff.R(t)) + kt.([PMB]i(t) – [PMB]) Eqn (S2) […]

wt-OMVs = assay: Single-cycle kinetic SPR binding to immobilized wt-OMVs; parameters: species or system E. coli; conditions: for SPR binding in presence of excess Mg^2+: 32 mM Mg^2+; for SPR binding profile: serial doubling injections, C1 chip
Experimental: Polymyxin B was covalently attached to a C1 chip (Series S Sensor Chip C1, Cytiva) using an amine coupling kit (Cytiva). Cartoon in Fig. 1A created with BioRender (biorender.com). Briefly, equal amounts of reagents N-hydroxysuccinimide and 1-ethyl-3-(3-dimethylaminopropyl) carbodiimide hydrochloride were mixed as per manufacturer’s instructions and immediately added to the gold chip surface for 2 min, washed with distilled deionized water, and dried. Sufficient polymyxin B (1 mM in 1 M HEPES buffer, pH 8) was added to cover the chip surface, incubated at room temperature for 1 h, washed as before, and then incubated with 1 M ethanolamine hydrochloride-NaOH, pH 8.5, for 1 min. The chip surface was washed with water, dried as previously described, immediately loaded into a Biacore S200, and primed with running buffer (described below) to equilibrate the system. C1 chips were used for multiple runs and discarded upon removal from the Biacore S200.
SCK C1-chip SPR experiments were performed in running buffer (Dulbecco’s phosphate-buffered salt solution 1x without calcium or magnesium (Fisher Scientific), pH 7.4, with 0.0005% tween-80 (Sigma) passed through a 0.2 µm filter) unless otherwise indicated. Inclusion of tween-80 prevented loss of polymyxin to the plastics[34] (also see Supplementary Information Methods). For experiments with brevicidine, which was suspended in DMSO, 0.125% DMSO was included in the running buffer. OMVs were diluted from frozen stocks to approximately 20–30 µg/ml protein in the OMV buffer. Capture of OMVs was performed at a low flow rate ([…]) for 300 s over the test channel(s) followed by a 300 s stabilization period. All subsequent steps were at a flow rate of […]. For single cycle kinetics, two-fold dilutions were injected over the channel(s) loaded with OMVs and a reference channel without OMVs for 30 s contact and 480 s dissociation. To regenerate chips, 0.5% SDS (desorb 1, Cytiva) was injected into all channels for 60 s at […] twice, with an extra buffer wash and four carry-over control steps to prevent residual SDS from disrupting the following cycle.
All single-cycle kinetic SPR traces shown were double-referenced (unless indicated) within the Biacore S200 Evaluation Software 1.0, exported as a.txt file, and imported (decimated) into GraphPad Prism (version 9.3.1 for Mac, GraphPad Software, San Diego, CA). For clarity, in some cases individual outlier data points (at buffer transitions) were removed when this would not change the overall data or conclusions.

[2] = LPS pre-saturated with polymyxin B

Structure (SMILES)	Rmax normalized by molecular weight ratio PMB:PMBN [1] [RU]	consumption of available LPS ([1]; immediately after polymyxin B saturation)	Kd ([1]; two LPS densities, pre-saturated with polymyxin B, SCK from 625 nM, Eq. S3, (± SE)) [nM]	SPR binding in presence of excess Mg^2+ (wt-OMVs)	effect of EDTA on SPR binding (wt-OMVs; EDTA 4 mM, maximum 625 nM, n=3)	SPR binding profile (wt-OMVs)	change in affinity and binding capacity after pre-saturation [1, 2]	fold loss in affinity [1, 2] [fold]	fold loss in binding capacity [1, 2] [fold]
CC[C@H](C)CCCCC(=O)N[C@@H](CCN)C(=O)N[C@H](C(=O)N[C@@H](CCN)C(=O)N[C@H]1CCNC(=O)[C@H]([C@@H](C)O)NC(=O)[C@H](CCN)NC(=O)[C@H](CCN)NC(=O)[C@H](CC(C)C)NC(=O)[C@@H](Cc2ccccc2)NC(=O)[C@H](CCN)NC1=O)[C@@H](C)O [Polymyxin B] (X1-[Dab]T[Dab][Dab][Dab][dF]L[Dab][Dab]T; lactam 4-C (inferred); N-terminus assumed)	407	~ 40%	127	reduced to a weak transient saw-tooth profile without stably bound polymyxin B	had no effect on polymyxin binding	dominated by the accumulation of tightly bound polymyxin B and a superimposed saw-tooth profile associated with transient binding	–	–	–
CC(C)C[C@@H]1NC(=O)[C@@H](Cc2ccccc2)NC(=O)[C@H](CCN)NC(=O)[C@@H](NC(=O)[C@H](CCN)NC(=O)[C@@H](N)[C@@H](C)O)CCNC(=O)[C@H]([C@@H](C)O)NC(=O)[C@H](CCN)NC(=O)[C@H](CCN)NC1=O [PMBN] (H-T[Dab][Dab][Dab][dF]L[Dab][Dab]T; lactam 3-C)	415	–	–	eliminated	–	exhibited only weak, saw-tooth binding; also recorded: exclusively produces rapidly reversible binding	two-fold drop in both affinity and binding capacity	2	2
